US4268505A, “Pharmaceutical composition comprising a nitrogen-containing polysaccharide and an antibiotic agent, and a method of treating an infectious disease therewith” (priority 1979, dated 1981)

Legend:
Escherichia coli = test: Minimum growth inhibiting concentration, agar plate method; format: cell-based; conditions: for Minimum growth inhibiting concentration: strain resistant to the respective drug
Protocol: (§1) The drug-resistant strains of bacterial species were obtained in the manner described below according to the concentration gradient plate culture (see "Chemotherapeutics and Resistant Bacteria", 1970, By Chikara Watanabe, Asakura Shoten).
(§2) The agar plates with drug concentration gradient ranging from 10 to 100 μg/ml were prepared, and each strain of the bacterial species to be tested was streaked or smeared. These plates were kept at 37° C. for several days and the colony formed in the high concentration area was isolated and again similarly inoculated to the plates. Such operation was repeated several times to obtain the bacterial strains resistant to the respective drugs.
(§3) The drug sensitivity of the drug-resistant strains and that of the original strains (sensitive strains) were compared by way of the minimum growth inhibiting concentration (hereinafter abbreviated as MIC) according to the Standard Method of the Japanese Chemotherapeutical Association (see "Chemotherapy" Vol. 22, No. 6, 1126 (1974), by MIC Determination Method Reform Committee). More specifically, double diluted systems of each drug were prepared and they were mixed with the heart-infusion agar medium (Nippon Eiyo Kagaku Co., Ltd.) to form the agar plates. Then a loopful of each strain, which had been cultured at 37° C. in Trypto-soy bouillon (Nippon Eiyo Kagaku Co., Ltd.) for 18 hr. was smeared on each the plate, and after culturing for 18 hr. at 37° C., the growth of the strain on each plate was examined.
MIC has apparently been reduced to half the level or less before addition of the present substance as will be seen in Table 3 of EXAMPLE 1. The amount of the present substance added is more than 10 μg/ml, preferably more than 100 μg/ml. The pH of the medium was maintained at 7.2±0.1 so that MIC would not be affected by pH of the medium.
Specimens of the drug-resistant bacterial strain were obtained according to the aforementioned concentration-gradient plate culture by using Staphylococcus aureus, Streptococcus faecalis, Escherichia coli, Salmonella enteritidis, Klebsiella pneumoniae and Pseudomonas aeruginosa. The MICs of the original bacterial strains and those of the bacterial strains which have developed resistance to the respective antibiotics are summarized in Table 2.

[1] = system: cephaloridine-resistant strain of Proteus mirabilis; test: Therapeutical treatment of mice infected with cephaloridine-resistant Proteus mirabilis (Example 11); format: in vivo, male ICR-JCL mice; conditions: only cephaloridine 80 mg/kg i.p., 7th day
Protocol: Similar experiments of therapeutical treatment as in Example 9 was performed by using the present substance obtained by the procedures described in Example 1.
A cephaloridine-resistant strain of Proteus mirabilis obtained by the procedures described in Example 1 was inoculated into male ICR-JCL mice comprising 20 animals at a rate of 5×10^8 cells/animal. After 2 hours of the inoculation 80 mg/kg of cephalotidine was administered intraperitoneally into each of 10 mice (of 20 mice), and 50 mg/kg of the present substance and 80 mg/kg of cephaloridine were almost simultaneously administered to each of another 10 mice (of 20 mice) intraperitoneally.
After keeping the animals under usual conditions for 6 days, their rate of survival were observed on 7th day to find: […]

[2] = system: aminobenzylpenicillin-resistant strain of Enterobacter aerogenes; test: Therapeutical treatment of mice infected with aminobenzylpenicillin-resistant Enterobacter aerogenes (Example 13); format: in vivo, male ICR-JCL mice; conditions: only aminobenzylpenicillin 100 mg/kg oral, 7th day
Protocol: After keeping the mice for 6 days under usual conditions, their rate of survival was determined on 7th day.

Proteus mirabilis = test: Minimum growth inhibiting concentration, agar plate method; format: cell-based
Protocol: as §1, §2, §3
The amount of the present substance added is more than 10 μg/ml, preferably more than 100 μg/ml. The pH of the medium was maintained at 7.2±0.1 so that MIC would not be affected by pH of the medium.
Specimens of the drug-resistant bacterial strain were obtained according to the aforementioned concentration-gradient plate culture by using Staphylococcus aureus, Streptococcus faecalis, Escherichia coli, Salmonella enteritidis, Klebsiella pneumoniae and Pseudomonas aeruginosa.

[3] = system: aminobenzylpenicillin-resistant strain of Klebsiella pneumoniae; test: Therapeutical treatment of mice infected with aminobenzylpenicillin-resistant Klebsiella pneumoniae (Example 12); format: in vivo, male ICR-JCL mice; conditions: only aminobenzylpenicillin 100 mg/kg oral, 7th day
Protocol: Similar experiments as in Example 9 were performed using the present substance obtained by the procedures described in Example 1.
An aminobenzylpenicillin-resistant strain of Klebsiella pneumoniae obtained by the procedures described in Example 1 was inoculated intraperitoneally into two groups (one group comprising 10 animals) of male ICR-JCL mice at a rate of 1×10^8 cells/mouse.
After 2 hours of the inoculation, 100 mg/kg of aminobenzyl penicillin was orally administered to each mouse of one group, and 1,000 mg/kg of the present substance simply admixtured with 100 mg/kg of aminobenzyl penicillin were orally administered to each mouse of another group. After keeping the mice under usual conditions, the rate of survival of each group was observed on 7th day with the results: […]

[4] = strain resistant to the respective antibiotic (Table 2)

SMILES	Minimum growth inhibiting concentration (MIC) (Escherichia coli; original strain)	Minimum growth inhibiting concentration (MIC) (Escherichia coli; [4])	Minimum growth inhibiting concentration (Escherichia coli; present substance added at 10 μg/ml)	Minimum growth inhibiting concentration (Escherichia coli; present substance not added (Table 3))	rate of survival [1]	rate of survival [2]	Minimum growth inhibiting concentration (MIC) (Proteus mirabilis; original strain)	Minimum growth inhibiting concentration (MIC) (Proteus mirabilis; [4])	Minimum growth inhibiting concentration (Proteus mirabilis; strain resistant to the respective drug, present substance not added (Table 3))	rate of survival [3]
O=C(Cc1cccs1)N[C@@H]1C(=O)N2C(C(=O)[O-])=C(C[n+]3ccccc3)CS[C@H]12 [CE, Cephaloridine]	3.1 µg/mL	25 µg/mL	12.5 µg/mL	25 µg/mL	60%	–	–	–	–	–
CC1(C)S[C@@H]2[C@H](NC(=O)[C@H](N)c3ccccc3)C(=O)N2[C@H]1C(=O)O [AP, Aminobenzylpenicillin]	–	–	–	–	–	70%	0.8 µg/mL	25 µg/mL	25 µg/mL	40%
